According to ChEMBL document CHEMBL4406842, “Synthesis and in vitro biological evaluation of novel derivatives of Flexicaulin A condensation with amino acid trifluoroacetate” (Eur J Med Chem, 2019):

What was measured:
TE-1 = assay: Antiproliferative activity against human TE1 cells assessed as reduction in cell viability incubated for 72 hrs by SRB assay; assay type: functional, cell-based; conditions: TE-1, 72 h
MCF7 = assay: Antiproliferative activity against human MCF7 cells assessed as reduction in cell viability incubated for 72 hrs by SRB assay; assay type: functional, cell-based; conditions: MCF7, 72 h
A549 = assay: Antiproliferative activity against human A549 cells assessed as reduction in cell viability incubated for 72 hrs by SRB assay; assay type: functional, cell-based; conditions: A549, 72 h
MGC-803 = assay: Antiproliferative activity against human MGC803 cells assessed as reduction in cell viability incubated for 72 hrs by SRB assay; assay type: functional, cell-based; conditions: MGC-803, 72 h
[1] = Solubility of compound in water; assay type: physicochemical; conditions: buffer

IC50 (MCF7) [µM] | IC50 (A549) [µM] | IC50 (MGC-803) [µM] | solubility [1] | Compound | IC50 (TE-1) [µM]
2.58 | 3.49 | 2.55 | Insoluble | C=C1C(=O)[C@]23[C@H](OC(=O)[C@H]4CCCN(C(=O)OC(C)(C)C)C4)[C@H]1C[C@H](O)[C@H]2[C@]1(COC(C)=O)CCCC(C)(C)[C@H]1C[C@H]3OC | 1.65
11.5 | 17.2 | 6.22 | Soluble | C=C1C(=O)[C@]23[C@H](OC(=O)[C@H]4CCCNC4)[C@H]1C[C@H](O)[C@H]2[C@]1(COC(C)=O)CCCC(C)(C)[C@H]1C[C@H]3OC.O=C(O)C(F)(F)F | 6.55
2.59 | 6.81 | 4.93 | Insoluble | C=C1C(=O)[C@]23[C@H](OC(=O)[C@H](CCC)NC(=O)OC(C)(C)C)[C@H]1C[C@H](O)[C@H]2[C@]1(COC(C)=O)CCCC(C)(C)[C@H]1C[C@H]3OC | 1.82
1.65 | 1.77 | 1.11 | – | C=C1C(=O)[C@]23[C@H](O)[C@H]1C[C@H](O)[C@H]2[C@]1(COC(C)=O)CCCC(C)(C)[C@H]1C[C@H]3OC | 4.4
1.11 | 1.68 | 1.66 | Soluble | C=C1C(=O)[C@]23[C@H](OC(=O)[C@@H](N)c4ccccc4)[C@H]1C[C@H](O)[C@H]2[C@]1(COC(C)=O)CCCC(C)(C)[C@H]1C[C@H]3OC.O=C(O)C(F)(F)F | 0.92
4.06 | 6.46 | 5.43 | Insoluble | C=C1C(=O)[C@]23[C@H](OC(=O)[C@H](CCCCNC(=O)OC(C)(C)C)NC(=O)OC(C)(C)C)[C@H]1C[C@H](O)[C@H]2[C@]1(COC(C)=O)CCCC(C)(C)[C@H]1C[C@H]3OC | 2.76
2.18 | 3.72 | 1.73 | Insoluble | C=C1C(=O)[C@]23[C@H](OC(=O)[C@H](CCc4ccccc4)NC(=O)OC(C)(C)C)[C@H]1C[C@H](O)[C@H]2[C@]1(COC(C)=O)CCCC(C)(C)[C@H]1C[C@H]3OC | 1.63
22 | 13.5 | 14.1 | – | C=C1C(=O)[C@]23[C@H](O)[C@H]1CC[C@H]2[C@@]12CO[C@]3(O)[C@@H](O)[C@@H]1C(C)(C)CC[C@@H]2O [ORIDONIN] | 12.7
3.62 | 5.86 | 5.35 | Soluble | C=C1C(=O)[C@]23[C@H](OC(=O)CNC)[C@H]1C[C@H](O)[C@H]2[C@]1(COC(C)=O)CCCC(C)(C)[C@H]1C[C@H]3OC.O=C(O)C(F)(F)F | 3.19
3.09 | 4.81 | 4.85 | Insoluble | C=C1C(=O)[C@]23[C@H](OC(=O)[C@H](CC)NC(=O)OC(C)(C)C)[C@H]1C[C@H](O)[C@H]2[C@]1(COC(C)=O)CCCC(C)(C)[C@H]1C[C@H]3OC | 1.74
7.1 | 9.5 | 5.47 | Insoluble | C=C1C(=O)[C@]23[C@H](OC(=O)[C@H](C(C)C)N(C)C(=O)OC(C)(C)C)[C@H]1C[C@H](O)[C@H]2[C@]1(COC(C)=O)CCCC(C)(C)[C@H]1C[C@H]3OC | 5.41
2.15 | 2.99 | 3.33 | Insoluble | C=C1C(=O)[C@]23[C@H](OC(=O)[C@H](CCCNC(=O)OC(C)(C)C)NC(=O)OC(C)(C)C)[C@H]1C[C@H](O)[C@H]2[C@]1(COC(C)=O)CCCC(C)(C)[C@H]1C[C@H]3OC | 1.39
3.08 | 5.46 | 3.94 | Insoluble | C=C1C(=O)[C@]23[C@H](OC(=O)CN(C)C(=O)OC(C)(C)C)[C@H]1C[C@H](O)[C@H]2[C@]1(COC(C)=O)CCCC(C)(C)[C@H]1C[C@H]3OC | 1.45

The remaining lines, values behind:

Compound | IC50 (MCF7) [µM] | IC50 (A549) [µM] | IC50 (MGC-803) [µM] | solubility [1] | IC50 (TE-1) [µM]
C=C1C(=O)[C@]23[C@H](OC(=O)CCCCCNC(=O)OC(C)(C)C)[C@H]1C[C@H](O)[C@H]2[C@]1(COC(C)=O)CCCC(C)(C)[C@H]1C[C@H]3OC | 2.84 | 5.41 | 3.5 | Insoluble | 1.72
C=C1C(=O)[C@]23[C@H](OC(=O)[C@@H]4CCCN4C(=O)OC(C)(C)C)[C@H]1C[C@H](O)[C@H]2[C@]1(COC(C)=O)CCCC(C)(C)[C@H]1C[C@H]3OC | 3.7 | 5.9 | 2.81 | Insoluble | 2.78
C=C1C(=O)[C@]23[C@H](OC(=O)[C@H](CCSC)NC(=O)OC(C)(C)C)[C@H]1C[C@H](O)[C@H]2[C@]1(COC(C)=O)CCCC(C)(C)[C@H]1C[C@H]3OC | 2.27 | 4.63 | 2.86 | Insoluble | 1.33
C=C1C(=O)[C@]23[C@H](OC(=O)[C@@H]4CCCN4)[C@H]1C[C@H](O)[C@H]2[C@]1(COC(C)=O)CCCC(C)(C)[C@H]1C[C@H]3OC.O=C(O)C(F)(F)F | 5.1 | 7.51 | 5.02 | Soluble | 4.28
C=C1C(=O)[C@]23[C@H](OC(=O)[C@@H](N)CCCN)[C@H]1C[C@H](O)[C@H]2[C@]1(COC(C)=O)CCCC(C)(C)[C@H]1C[C@H]3OC.O=C(O)C(F)(F)F.O=C(O)C(F)(F)F | 6.55 | 8.04 | 5.28 | Soluble | 2.71
C=C1C(=O)[C@]23[C@H](OC(=O)[C@@H](N)CCCCN)[C@H]1C[C@H](O)[C@H]2[C@]1(COC(C)=O)CCCC(C)(C)[C@H]1C[C@H]3OC.O=C(O)C(F)(F)F.O=C(O)C(F)(F)F | 22.2 | 5.86 | 9.52 | Soluble | 14.3
C=C1C(=O)[C@]23[C@H](OC(=O)[C@H](C)N(C)C(=O)OC(C)(C)C)[C@H]1C[C@H](O)[C@H]2[C@]1(COC(C)=O)CCCC(C)(C)[C@H]1C[C@H]3OC | 2.05 | 5.41 | 3.29 | Insoluble | 1.04
C=C1C(=O)[C@]23[C@H](OC(=O)[C@@H](N)CCc4ccccc4)[C@H]1C[C@H](O)[C@H]2[C@]1(COC(C)=O)CCCC(C)(C)[C@H]1C[C@H]3OC.O=C(O)C(F)(F)F | 1.81 | 3.35 | 1.06 | Soluble | 2.98
C=C1C(=O)[C@]23[C@H](OC(=O)[C@@H](N)CCCC)[C@H]1C[C@H](O)[C@H]2[C@]1(COC(C)=O)CCCC(C)(C)[C@H]1C[C@H]3OC.O=C(O)C(F)(F)F | 2.51 | 1.54 | 3.22 | Soluble | 2.64
C=C1C(=O)[C@]23[C@H](OC(=O)CCCCCN)[C@H]1C[C@H](O)[C@H]2[C@]1(COC(C)=O)CCCC(C)(C)[C@H]1C[C@H]3OC.O=C(O)C(F)(F)F | 3.68 | 11.4 | 5.14 | Soluble | 5.36
C=C1C(=O)[C@]23[C@H](OC(=O)CCCCN)[C@H]1C[C@H](O)[C@H]2[C@]1(COC(C)=O)CCCC(C)(C)[C@H]1C[C@H]3OC.O=C(O)C(F)(F)F | 7.89 | 1.62 | 7.15 | Soluble | 3.16
C=C1C(=O)[C@]23[C@H](OC(=O)CNC(=O)OC(C)(C)C)[C@H]1C[C@H](O)[C@H]2[C@]1(COC(C)=O)CCCC(C)(C)[C@H]1C[C@H]3OC | 1.7 | 4.24 | 5.71 | Insoluble | 1.64
C=C1C(=O)[C@]23[C@H](OC(=O)[C@@H]4CCCCN4)[C@H]1C[C@H](O)[C@H]2[C@]1(COC(C)=O)CCCC(C)(C)[C@H]1C[C@H]3OC.O=C(O)C(F)(F)F | 3.49 | 2.84 | 7.15 | Soluble | 3.16
C=C1C(=O)[C@]23[C@H](OC(=O)[C@@H](N)CCSC)[C@H]1C[C@H](O)[C@H]2[C@]1(COC(C)=O)CCCC(C)(C)[C@H]1C[C@H]3OC.O=C(O)C(F)(F)F | 3.1 | 1.96 | 3.66 | Soluble | 1.6
C=C1C(=O)[C@]23[C@H](OC(=O)[C@H](C)NC)[C@H]1C[C@H](O)[C@H]2[C@]1(COC(C)=O)CCCC(C)(C)[C@H]1C[C@H]3OC.O=C(O)C(F)(F)F | 5.03 | 2.79 | 6.34 | Soluble | 3.32
C=C1C(=O)[C@]23[C@H](OC(=O)CCCCNC(=O)OC(C)(C)C)[C@H]1C[C@H](O)[C@H]2[C@]1(COC(C)=O)CCCC(C)(C)[C@H]1C[C@H]3OC | 1.56 | 5.64 | 3.06 | Insoluble | 1.19
C=C1C(=O)[C@]23[C@H](OC(=O)[C@@H](N)C(C)C)[C@H]1C[C@H](O)[C@H]2[C@]1(COC(C)=O)CCCC(C)(C)[C@H]1C[C@H]3OC.O=C(O)C(F)(F)F | 1.27 | 2.67 | 0.99 | Soluble | 1.97
